The test system of data set [1] is TCCSUP bladder cancer cell line. In words: 72 hr cell viability assay (MTS), TCCSUP. Type of data set: cell-based, human. To be noted: PTUPB 1, 2, 5, 10 μM. The protocol:
(§1) Median effect analysis to determine in vitro drug-drug interaction. […] PTUPB was dissolved in dimethyl sulfoxide (DMSO) to a final stock concentration of 10 mM. […] Cells were seeded at 2,000-3,000 cells and 100 μl of medium per well into 96-well plates (Becton Dickinson, Franklin Lakes, N.J.), and incubated overnight. Different concentrations of these two drugs were diluted in culture media and added to each well. The plates were then incubated for an additional 72 hours. The control group was dosed with 0.2% DMSO. Cell viability assays (MTS) were performed according to the manufacturer's protocol (Promega, Madison, Wis.). […] Dose-response curves were generated with GraphPad Prism 5 software (GraphPad Software Inc., La Jolla, Calif.). The combination indices (CI) were determined based on the method of Chou et al (26). CI values were calculated with CompuSyn software (http://www.combosyn.com/).

For data set [2], the system named is 5637 bladder cancer cells. Put plainly: 72 hr cell viability assay (MTS) and combination index, 5637. The class given is cell-based, human. On the procedure: as §1
Data set [3] has as its system bladder cancer PDX BL0293. Put plainly: tumor growth and survival in NSG-PDX bladder cancer mouse model BL0293. The class given is in vivo, NSG mice. On the procedure: (§2) Materials and Supplies. Bladder cancer subject-derived xenograft (PDX) models were provided by The Jackson Laboratory (JAX, Bar Harbor, Me.). […] All experiments utilized PDX models within the first five passages. […] Gemcitabine was purchased from LC Laboratories (Woburn, Mass.). […] The cell lines have not been tested and authenticated by the authors.
(§3) PDX bladder cancer. NSG PDX studies were performed at the University of California Davis with IACUC approval. […] Gemcitabine was dissolved in 0.9% saline and administered at a dose of 150 mg/kg (IP, weekly) for 4 weeks. Animal weight and tumor size were measured twice per week. […] The percentage of tumor growth inhibition (TGI) was calculated as follows; 100%×(1−[(V^treated(final day)−V^treated(initial day))/(V^control(final day)−V^control(initial day))]), where V is tumor volume.
(§4) Statistics. Data are presented as mean±standard error of the mean (SEM) or mean±standard deviation (SD). Group comparisons were carried out using one-way analysis of variance or Student's t test. Survival analysis was performed using the Kaplan-Meier method. A p value of less than 0.05 was considered statistically significant.

Data set [4] deals with bladder cancer PDX BL0269. Put plainly: tumor growth in NSG-PDX bladder cancer mouse model BL0269. The class given is in vivo, NSG mice. On the procedure: as §2, §3, §4
Another data set relates to COX-1. In words: COX-1 inhibitory activity (Table 3). Type of data set: biochemical. More on the design: dose or concentration left out as unconfirmed.
Another data set concerns p-ERK and p-AKT. In words: Western blot of PDX BL0293 tumor tissue. Type of data set: in vivo, NSG mice. Particulars: day 3; BL0293 tumors. On the procedure:
(§5) Blood samples from mice were collected and analyzed for complete blood count (CBC), blood urea nitrogen (BUN), aspartate aminotransferase (AST), creatinine and total bilirubin at the Veterinary Medicine Comparative Pathology Laboratory of University of California Davis. The tumor, heart, liver, spleen, lung and kidney were harvested and the tissue samples were fixed in formalin or frozen at −80° C. Tumor sections were stained with hematoxylin and eosin (H&E) or were used for immunohistochemistry analysis. A board-certified pathologist provided detailed interpretation of tumor histomorphology and scoring of immunohistochemical staining. Some of the tumor sections were lysed and chromatographed using SDS-PAGE followed by transfer onto a PVDF membrane. […] The membranes were then probed with horseradish peroxidase (HRP) tagged secondary antibodies and epitopes were detected using the ECL Plus Western Blotting Detection Reagent (GE Healthcare, Piscataway, N.J.). Cell proliferation and apoptosis assessed with Ki-67 and cleaved caspase-3 antibodies (Cell Signaling, Danvers, Mass.) using an immunohistochemistry kit per the manufacturer's instructions (BioGenex, Fremont, Calif.).

Data set [5] is described as follows: toxicity in PDX-bearing mice (body weight, blood counts, chemistry, histology of major organs). On the set-up: species or system NSG mice. Particulars: mouse, in vivo. The protocol:
as §3
as §5, with “C.” for “C. Tumor sections were stained with hematoxylin and eosin (H&E) or were used for immunohistochemistry analysis. A board-certified pathologist provided detailed interpretation of tumor histomorphology and scoring of immunohistochemical staining. Some of the tumor sections were lysed and chromatographed using SDS-PAGE followed by transfer onto a PVDF membrane.”

Data set [6] deals with J82 bladder cancer cell line. In words: 72 hr cell viability assay (MTS), J82. Type of data set: cell-based, human. Particulars: PTUPB 1, 2, 5, 10 μM. The protocol: as §1
For a further data set, the system named is COX-2 and sEH pathways. In words: oxylipin profile analysis (LC-MS/MS) of tumor tissue. The class given is in vivo, NSG mice. The protocol: Oxylipin profile analysis. Lipid extraction and analysis was performed as previously reported (20). Briefly, for tumor lipid mediator extraction, ˜100 mg of tumor tissues was mixed with an antioxidant solution (0.2 mg/mL butylated hydroxytoluene and 0.2 mg/mL triphenylphosphine in methanol), the surrogate solution, and 400 μL of extract solution (0.1% acetic acid with 0.2 mg/mL butylated hydroxytoluene in methanol), and then homogenized. The resulting homogenates were kept overnight at −80° C. Next day, the homogenates were centrifuged and supernatants were collected. The pellets were washed with 0.1% butylated hydroxytoluene and 0.1% acetic acid in methanol and the supernatants were collected and combined. LC-MS/MS analysis of the extracts were carried out on an Agilent 1200SL liquid chromatographic system coupled to a 4000 QTRAP MS/MS instrument (AB Sciex) as described (29).

The test system of data set [7] is T24 bladder cancer cell line. Put plainly: 72 hr cell viability assay (MTS), T24. The class given is cell-based, human. Particulars: PTUPB 1, 2, 5, 10 μM. The protocol: as §1
In data set [8] the test system is bladder cancer PDX BL0808. In words: gemcitabine combination in bladder cancer PDX BL0808. The class given is in vivo. On the procedure: PDX BL0808 was implanted into immunodeficient nod scid gamma (NSG) mice and treatment was started once tumor volume reached approximately 250 mm^3. Treatment consisted of either vehicle (5 μL/g PEG300, p.o., once daily until end of study), PTUPB (30 mg/kg in PEG300, p.o., once daily until end of study), gemcitabine (150 mg/kg in WFI, IP, once weekly, 4 times) or a combination of PTUPB with gemcitabine. Tumor volume and animal weight was monitored every other day and mice were sacrificed once tumor size reached 2 cm and tumor specific survival was recorded.

Where [9] appears, read: BL0293, PTUPB 30 mg/kg orally once daily, cisplatin 2 mg/kg i.v.

SMILES strings stand for the structures.

Regarding `NS(=O)(=O)c1ccc(-n2nc(CCCNC(=O)Nc3ccc(C(F)(F)F)cc3)cc2-c2ccccc2)cc1` [PTUPB, 4-(5-phenyl-3-{3-[3-(4-trifluoromethyl-phenyl)-ureido]-propyl}-pyrazol-1-yl)-benzenesulfonamide], the “effect on cisplatin cytotoxicity” value in [1] is “did not increase cisplatin cytotoxicity”. In addition, the IC50 in data set [2] (Homo sapiens, single drug, 72 hr) is 90.4 µM. The “drug-drug interaction with cisplatin (combination index)” value in data set [2] (PTUPB 1, 2, 5 and 10 μM with cisplatin at 5 μM) is reported as “modest synergistic effects”. In data set [3] (setting [9]), the “median time to a […] increase in tumor volume” value was determined as 24.4 days and the overall survival is reported as 39.4 days. Also, the “anti-tumor activity, single agent” value in data set [3] (mice bearing BL0293 tumors) was “moderate anti-tumor activity”. For the same compound, in data set [4] (PTUPB 30 mg/kg, cisplatin 2 mg/kg, gemcitabine 150 mg/kg), the “inhibition of tumor growth on addition to GC (gemcitabine and cisplatin)” value is listed as “best inhibition of tumor growth”. Further, the “potentiation of cisplatin with respect to inhibiting tumor growth” value in [4] (combined with cisplatin 2 mg/kg) was “best and most statistically significant potentiation”. Further, the “COX-1 (% inhibition)” value in the data set with COX-1 amounted to 22.7%. In addition, the “levels of p-ERK and p-AKT” value in the data set on p-ERK and p-AKT is “did not significantly diminish”. In [5], the body weight change result is given as “slightly decreased body weight” and the “histology examination of major organs” value was “no such morphology changes were observed”. Besides, the “effect on cisplatin cytotoxicity” value in [6] was “did not increase cisplatin cytotoxicity”. Besides, in the data set on COX-2 and sEH pathways (BL0269 tumors), the “effect on diol metabolites 10,11-DiHDPE and 15,16-DiHODE” value was “no effect”; the “increase of 10,11-EpDPE, 15,16-EpODE” value is “approximately two-fold increase”. Also, in the data set on COX-2 and sEH pathways (mouse, in vivo), the “reduction of levels of prostaglandins PGE2, PGD2, TXB2, 6-keto-PGF1α in tumor” value is about 50%. In the data set on COX-2 and sEH pathways (tumor), the “decrease of diol metabolite 12,13-DiHOME” value is recorded as about 2 fold and the “increase of 12,13-EpOME” value is reported as “approximately two-fold increase”. Also, in data set [7], the “effect on cisplatin cytotoxicity” value was “did not increase cisplatin cytotoxicity”. The “gemcitabine chemotherapy efficacy (tumor volume)” value in data set [8] (PTUPB 30 mg/kg p.o. with gemcitabine 150 mg/kg IP) was “extends gemcitabine chemotherapy efficacy”. Also, in [8] (PTUPB with gemcitabine), the “gemcitabine toxicity (animal weight)” value is “does not increase gemcitabine toxicity” and the tumor specific survival result is “increases tumor specific survival”.

By IC50 is commonly meant the concentration needed to halve the response being measured.
